{"source": "patent US20120255051A1", "about": "“HERBICIDE TOLERANT PLANTS” (priority 2009, published 2012)", "tested_on": "Brassica plants comprising mutant AHAS alleles", "test": "Field trial, pre-planting treatment (0, 10, 20, 30 g a.i./ha), two locations in Canada: ERG, EST1, EST2, PPTOX, VIG1, VIG2, VIG3 scores", "assay_type": "in vivo, Brassica napus", "source_text": "Tests were set up and conducted to asses the growth and performance of plants comprising AHAS full knock-out alleles, and to further analyze the correlation between the presence of full knockout and missense AHAS genes in Brassica plants and plant growth and herbicide tolerance of the Brassica plants in the field. To this end, the Brassica plants identified in Example 1 and 2 were backcrossed two times with an elite parent line, and subsequently selfed twice to obtain homozygous plants (BC2S2). Plants were grown as row plots in a split plot design with three replicates (main plots=herbicide treatments, subplots=genotypes) at two locations in Canada. Treatment pre-planting was carried out on the soil about two days before sowing with a dose of 0 (treatment A), 10 (treatment B), 20 (treatment C) or 30 (treatment D) g a.i./ha of thiencarbazone methyl. Herbicide tolerance was measured by scoring for different parameters. The parameter emergence (ERG) was scored at the cotyledon stage on a scale 1-9, where 1 means late emergence and 9 means early emergence. Establishment was scored 14 days after sowing (EST1) and 21 days after sowing (EST2). Scores were from 1 to 9, where 1 is the worst establishment (least plants that emerged), and 9 is the best establishment (most plants emerged). Phytotoxicity (PPTOX) was determined after establishment. Plants were evaluated on a scale of 1 to 9, where 1=completely yellowing, 5=50% of plant is yellow and 9=no yellowing. The vigor scores (see above) were determined at 1-2 leaf stage (VIG1), 7 days after VIG1 (VIG2) and 14 days after VIG1 (VIG3). The average values (Av) and standard deviations (SD) of the scores for the different parameters are represented in Table 7a-g.\nFurther, the contribution of the knock-out allele to herbicide tolerance conferred by the missense allele was calculated. First, the scores were corrected for a possible effect of the growth per se, independent of herbicide treatment. To this end, the scores for treatments B, C and D were divided by the scores for treatment A for the same genotype and for the same parameter (corrected herbicide tolerance scores). Next, the effect of the knock-out allele to these corrected herbicide tolerance scores obtained by the missense allele was calculated. Therefore, the corrected herbicide tolerance scores for the missense—knock-out allele combination was divided by the corrected herbicide tolerance scores for the missense allele—wild-type combination. In case the knock-out allele has no effect on herbicide tolerance conferred by the missense allele, this ratio should be 1. In case the knock-out allele positively contributes to the herbicide tolerance conferred by the missense allele, this ratio should be higher than 1. The results for the contribution of the knock-out allele to herbicide tolerance conferred by the missense allele as calculated above are shown in table 8.", "key": {"[1]": {"details": "AHAS1 HETO108/AHAS3 HETO104, 30 g a.i./ha pre-planting (D), Location A"}, "[2]": {"details": "AHAS1 HETO108/AHAS3 HETO104, 30 g a.i./ha pre-planting (D), Location B"}, "[3]": {"details": "AHAS1 HETO108/AHAS3 HETO111, 10 g a.i./ha pre-planting (B), Location A"}, "[4]": {"details": "AHAS1 HETO108/AHAS3 HETO111, 10 g a.i./ha pre-planting (B), Location B"}, "[5]": {"details": "AHAS1 HETO108/AHAS3 HETO111, 20 g a.i./ha pre-planting (C), Location A"}, "[6]": {"details": "AHAS1 HETO108/AHAS3 HETO111, 20 g a.i./ha pre-planting (C), Location B"}, "[7]": {"details": "AHAS1 HETO108/AHAS3 HETO111, 30 g a.i./ha pre-planting (D), Location A"}, "[8]": {"details": "AHAS1 HETO108/AHAS3 HETO111, 30 g a.i./ha pre-planting (D), Location B"}, "[9]": {"details": "AHAS1 HETO108/AHAS3 WT, 10 g a.i./ha pre-planting (B), Location A"}, "[10]": {"details": "AHAS1 HETO108/AHAS3 WT, 10 g a.i./ha pre-planting (B), Location B"}, "[11]": {"details": "AHAS1 HETO108/AHAS3 WT, 20 g a.i./ha pre-planting (C), Location A"}, "[12]": {"details": "AHAS1 HETO108/AHAS3 WT, 20 g a.i./ha pre-planting (C), Location B"}, "[13]": {"details": "AHAS1 HETO108/AHAS3 WT, 30 g a.i./ha pre-planting (D), Location A"}, "[14]": {"details": "AHAS1 HETO108/AHAS3 WT, 30 g a.i./ha pre-planting (D), Location B"}, "[15]": {"details": "AHAS1 HETO112, AHAS3 HETO111, treatment B 10 g a.i./ha pre-planting, Location A"}, "[16]": {"details": "AHAS1 HETO112, AHAS3 HETO111, treatment B 10 g a.i./ha pre-planting, Location B"}, "[17]": {"details": "AHAS1 HETO112, AHAS3 HETO111, treatment C 20 g a.i./ha pre-planting, Location A"}, "[18]": {"details": "AHAS1 HETO112, AHAS3 HETO111, treatment C 20 g a.i./ha pre-planting, Location B"}, "[19]": {"details": "AHAS1 HETO112, AHAS3 HETO111, treatment D 30 g a.i./ha pre-planting, Location A"}, "[20]": {"details": "AHAS1 HETO112, AHAS3 HETO111, treatment D 30 g a.i./ha pre-planting, Location B"}, "[21]": {"details": "AHAS1 HETO112, AHAS3 WT, treatment B 10 g a.i./ha pre-planting, Location A"}}, "note": "Values joined by “and” are separate entries in the source; they are usually repeats but may differ in a detail not shown here. Equal values may be shown once.", "data": [{"compound": "COC(=O)c1csc(C)c1S(=O)(=O)NC(=O)n1nc(OC)n(C)c1=O", "note": "[thiencarbazone-methyl, methyl 4-[(4,5-dihydro-3-methoxy-4-methyl-5-oxo-1H-1,2,4-triazol-1-yl)carbonylsulfamoyl]-5-methylthiophene-3-carboxylate]", "values": [{"measurement": "vigor2 (VIG2) score, Av", "setting": "AHAS1 HETO108/AHAS3 HETO104, 20 g a.i./ha pre-planting (C), Location B", "result": 6.33}, {"measurement": "establishment (EST2) score, Av", "setting": "[1]", "result": 5.33}, {"measurement": "phytotoxicity (PPTOX) score, Av", "setting": "[1]", "result": 5.00}, {"measurement": "vigor2 (VIG2) score, Av", "setting": "[1]", "result": 5.67}, {"measurement": "establishment (EST2) score, Av", "setting": "[2]", "result": 5.33}, {"measurement": "phytotoxicity (PPTOX) score, Av", "setting": "[2]", "result": 6.33}, {"measurement": "vigor2 (VIG2) score, Av", "setting": "[2]", "result": 6.00}, {"measurement": "establishment (EST2) score, Av", "setting": "[3]", "result": 6.33}, {"measurement": "vigor1 (VIG1) score, Av", "setting": "[3]", "result": 6.33}, {"measurement": "vigor2 (VIG2) score, Av", "setting": "[3]", "result": 7.33}, {"measurement": "establishment (EST2) score, Av", "setting": "[4]", "result": 6.00}, {"measurement": "vigor2 (VIG2) score, Av", "setting": "[4]", "result": 7.00}, {"measurement": "establishment (EST2) score, Av", "setting": "[5]", "result": 5.67}, {"measurement": "phytotoxicity (PPTOX) score, Av", "setting": "[5]", "result": 5.00}, {"measurement": "vigor2 (VIG2) score, Av", "setting": "[5]", "result": 6.33}, {"measurement": "establishment (EST2) score, Av", "setting": "[6]", "result": 5.33}, {"measurement": "vigor1 (VIG1) score, Av", "setting": "[6]", "result": 5.00}, {"measurement": "vigor2 (VIG2) score, Av", "setting": "[6]", "result": 6.33}, {"measurement": "establishment (EST2) score, Av", "setting": "[7]", "result": 6.00}, {"measurement": "phytotoxicity (PPTOX) score, Av", "setting": "[7]", "result": 6.00}, {"measurement": "vigor1 (VIG1) score, Av", "setting": "[7]", "result": 6.00}, {"measurement": "vigor2 (VIG2) score, Av", "setting": "[7]", "result": 7.00}, {"measurement": "establishment (EST2) score, Av", "setting": "[8]", "result": 4.00}, {"measurement": "vigor2 (VIG2) score, Av", "setting": "[8]", "result": 4.33}, {"measurement": "establishment (EST2) score, Av", "setting": "[9]", "result": "6.67 and 6.33"}, {"measurement": "phytotoxicity (PPTOX) score, Av", "setting": "[9]", "result": 7.00}, {"measurement": "vigor1 (VIG1) score, Av", "setting": "[9]", "result": "7.00 and 6.00"}, {"measurement": "vigor2 (VIG2) score, Av", "setting": "[9]", "result": "8.33 and 7.67"}, {"measurement": "establishment (EST2) score, Av", "setting": "[10]", "result": "5.00 and 5.33"}, {"measurement": "phytotoxicity (PPTOX) score, Av", "setting": "[10]", "result": "6.33 and 5.00"}, {"measurement": "vigor1 (VIG1) score, Av", "setting": "[10]", "result": 6.00}, {"measurement": "vigor2 (VIG2) score, Av", "setting": "[10]", "result": "5.33 and 5.67"}, {"measurement": "establishment (EST2) score, Av", "setting": "[11]", "result": "5.00 and 5.67"}, {"measurement": "phytotoxicity (PPTOX) score, Av", "setting": "[11]", "result": 5.00}, {"measurement": "vigor1 (VIG1) score, Av", "setting": "[11]", "result": 6.00}, {"measurement": "vigor2 (VIG2) score, Av", "setting": "[11]", "result": 6.67}, {"measurement": "phytotoxicity (PPTOX) score, Av", "setting": "[12]", "result": 7.00}, {"measurement": "vigor1 (VIG1) score, Av", "setting": "[12]", "result": 5.00}, {"measurement": "vigor2 (VIG2) score, Av", "setting": "[12]", "result": "6.33 and 7.67"}, {"measurement": "establishment (EST2) score, Av", "setting": "[13]", "result": "5.67 and 5.33"}, {"measurement": "phytotoxicity (PPTOX) score, Av", "setting": "[13]", "result": 5.00}, {"measurement": "vigor2 (VIG2) score, Av", "setting": "[13]", "result": 6.33}, {"measurement": "phytotoxicity (PPTOX) score, Av", "setting": "[14]", "result": 5.00}, {"measurement": "vigor1 (VIG1) score, Av", "setting": "[14]", "result": 5.00}, {"measurement": "vigor2 (VIG2) score, Av", "setting": "[14]", "result": "5.00 and 5.33"}, {"measurement": "emergence (ERG) score Av", "setting": "[15]", "result": 4.33}, {"measurement": "establishment (EST1) score Av, 14 days after sowing", "setting": "[15]", "result": 5.00}, {"measurement": "emergence (ERG) score Av", "setting": "[16]", "result": 4.33}, {"measurement": "establishment (EST1) score Av, 14 days after sowing", "setting": "[16]", "result": 5.67}, {"measurement": "emergence (ERG) score Av", "setting": "[17]", "result": 5.00}, {"measurement": "establishment (EST1) score Av, 14 days after sowing", "setting": "[17]", "result": 5.33}, {"measurement": "emergence (ERG) score Av", "setting": "[18]", "result": 4.00}, {"measurement": "establishment (EST1) score Av, 14 days after sowing", "setting": "[18]", "result": 5.00}, {"measurement": "emergence (ERG) score Av", "setting": "[19]", "result": 5.33}, {"measurement": "establishment (EST1) score Av, 14 days after sowing", "setting": "[19]", "result": 5.67}, {"measurement": "emergence (ERG) score Av", "setting": "[20]", "result": 3.00}, {"measurement": "establishment (EST1) score Av, 14 days after sowing", "setting": "[20]", "result": 3.67}, {"measurement": "emergence (ERG) score Av", "setting": "[21]", "result": 1.67}, {"measurement": "establishment (EST1) score Av, 14 days after sowing", "setting": "[21]", "result": 1.67}, {"measurement": "emergence (ERG) score Av", "setting": "AHAS1 HETO112, AHAS3 WT, treatment B 10 g a.i./ha pre-planting, Location B", "result": 1.67}]}]}
